Source: US20040019026A1, “Compounds useful for treating hypertriglyceridemia” (priority 2000, published 2004)
“And” between values parts separate entries of the source, which are not always exact repeats. Equal entries are not always repeated.

How the values were obtained:
[1] = system: male BKS.Cg-m+/+Leprdb mice; test: Buccal administration to diabetic mice: fasting plasma triglycerides (Example 3); assay type: in vivo
Excerpt: The following example, tested the effects of buccal administration of 16α-fluoro-5-andorsten-17-one (hereinafter “drug”).
Eight-week-old male BKS.Cg-m^+/+Lepr^db mice were obtained from Jackson Laboratories. The mice were initially housed five per cage on Alphacel bedding with ad libitum access to Purina 5015 chow and acidified water. The mice wee housed in the Central Animal Facility (6th Floor, Pharmacy building) with twelve hours of alternating light and darkness.
Five days later, the chow was removed from the mice at approximately 3:30 p.m. This was done so that a fasting plasma glucose level could be obtained on the next day. The next day, a pretreatment plasma glucose determination was made. The mice were lightly anesthetized with Isoflurane and were bled form the orbital sinus (˜400 μL of blood was taken). The blood was obtained between 10:00 a.m. and noon. Blood was kept on ice until analysis. After the blood for the glucose measurement was taken out, the remaining blood was centrifuged at 3000×g for 15 minutes. The plasma was removed and frozen for use in determining plasma triglyceride levels.
Plasma triglyceride levels were determined with a Sigma kit (334-UV). The determination is based on the enzymatic hydrolysis of triglycerides to glycerol and free fatty acids by lipase. Glycerol was subsequently phosphorylated by ATP to produce glycerol-I-phosphate and ADP. ATP was regenerated by a pyruvate kinase-catalyzed reaction between ADP […] with simultaneous oxidation of equimolar amounts of NADH in the presence of lactate dehydrogenase. NADH absorbs at 340 nm, thus the decrease in absorbance, measured at this wavelength, is directly proportional to the triglyceride concentration in this sample.
Triglyceride Reagent A (containing ATP, lactate dehydrogenase, lipase, NADH, phosphoenol pyruvate, pyruvate kinase) and Triglyceride Reagent B were reconstituted with 10 mL and 2 mL of distilled water respectively. The Sample Reagent was prepared by adding 0.25 mL of Triglyceride reagent B to 10 mL to Triglyceride Reagent A. Blank, standard (50, 100 and 200 mg/dL) and sample tubes were prepared. One mL of Sample Reagent was added to all tubes. To the Blank tube, 20 μL of distilled water was added. For each Sample tube, 20 μL of plasma was added to the tube. All tubes were incubated at room temperature for 10 minutes. The tubes were read against a Reference containing distilled water. Triglyceride concentration in the samples were calculated by subtracting the absorbance of the Sample form the absorbance of the Blank and using the following formula: […]
One week after obtaining the mice, the mice were distributed into either groups of 6 mice (Control, buccal and 5 mg/kg drug buccal), or 7 mice (10 mg/kg drug buccal). The mice were weighed.
The buccally administered groups were treated with a suspension of drug, 16α-5-androsten-17-one obtained from Eminent Services Corp. The suspension consisted of 100 mg/mL of micronized fluasterone (16α-fluoro-5-androsten-17-one) in 0.9% saline plus 2% Tween 80 and 0.4% carboxymethyl cellulose. The mice were lightly anesthetized with isoflurane and then injected i.m. with 0.05 mL of a solution of ketamine (50 mg/kg), xylazine (10 mg.kg) and atropine (0.1 mg/kg) injected near tail). Approximately 10 minutes post injection, while the animals were anesthetized, the mice were placed on their backs and were treated with one-half of the dose of drug necessary in each buccal area. The mice remained anesthetized and on their backs for approximately 30 minutes post-treatment. The 5 mg/kg drug group was treated with 2.04 μL of suspension (1.02 μL per buccal area) and the 10 mg/kg drug group was treated with 4.2 μL(2.1 μL per buccal area) while the Control Buccal group received 4.2 μL (2.1 μL per buccal area) for the duration of the experiment. The cages of the mice were placed on heating pads on a low temperature to prevent loss of animals due to hypothermia during anesthesia. […]

Syndrome X patients = test: Randomized double-blind crossover trial in Syndrome X patients (Example 5c); assay type: in vivo, human; details: 600 mg twice daily, four weeks
Excerpt: Eleven patients were enrolled in the trial. The average age was 50.2±12.8 years, and there were 10 males and 1 patient enrolled. Body weight and body mass index were 87.8±17.9 kg and 27.7±3.0 kg/m^2, respectively. All patients carried a diagnosis of dyslipidemia, including elevated triglycerides, for an average of 11.7±6.4 years.
In this randomized, double-blind, crossover study, the 11 patients underwent eligibility screening (physical exam, medical history, laboratory evaluation, PSA, TSH), followed by a six-week lead-in phase (study weeks 1-6) that included diet (AHA Step II), and discontinuation of lipid-lowering therapy. At week 4, qualifying lipid testing was performed, followed by randomization to study treatment two weeks later. Four-weeks of each of the two study treatments, fluasterone 600 mg twice daily or placebo, were then administered (weeks 7 thru 10 and 15 thru 18), separated by a 4-week washout period. At baseline, and at the end of each treatment period measurement of total serum cholesterol, triglycerides, apolipoprotein A1, and the cholesterol and triglyceride content of VLDL, LDL, and HDL was done.
The baseline triglyceride level (mg/dL) was 509±184 and the baseline HDL level (mg/dL) was 33.0±3.5.

C[C@]12CCCCC1=CC[C@@H]1[C@@H]2CC[C@]2(C)C(=O)[C@H](F)C[C@@H]12 [fluasterone, 16α-fluoro-5-androsten-17-one]
Plasma triglycerides ([1]; 5 mg/kg buccal group, pre-treatment, group mean): 138.4 ± 44.6 mg/dL
Plasma triglycerides ([1]; 5 mg/kg buccal group, pre-treatment, individual mice, listed as drug): 116.8 mg/dL and 222.8 mg/dL and 120.6 mg/dL and 110.7 mg/dL and 153.8 mg/dL and 105.9 mg/dL
Plasma triglycerides ([1]; 5 mg/kg buccal, after 6 days of treatment, group mean, p < 0.01 vs. control buccal): 110.6 ± 28.0 mg/dL
Plasma triglycerides ([1]; 5 mg/kg buccal, after 6 days of treatment, individual mice, listed as drug): 77.2 mg/dL and 106.0 mg/dL and 87.3 mg/dL and 414.0 mg/dL and 146.6 mg/dL and 105.4 mg/dL
Plasma triglycerides ([1]; 5 mg/kg buccal, after 13 days of treatment, group mean, p < 0.0005 vs. Control buccal): 82.0 ± 12.3 mg/dL
Plasma triglycerides ([1]; 5 mg/kg buccal, after 13 days of treatment, individual mice, listed as drug): 97.8 mg/dL and 89.3 mg/dL and 65.3 mg/dL and 79.1 mg/dL and 78.3 mg/dL
Plasma triglycerides ([1]; 10 mg/kg buccal group, pre-treatment, group mean): 118.7 ± 38.1 mg/dL
Plasma triglycerides ([1]; 10 mg/kg buccal group, pre-treatment, individual mice, listed as drug): 97.1 mg/dl and 102.1 mg/dl (2×) and 89.4 mg/dl and 184.4 mg/dl and 93.7 mg/dl and 162.1 mg/dl
Plasma triglycerides ([1]; 10 mg/kg buccal, after 6 days of treatment, group mean, p < 0.01 vs. Control buccal): 96.5 ± 32.4 mg/dL
Plasma triglycerides ([1]; 10 mg/kg buccal, after 6 days of treatment, individual mice, listed as drug): 108.7 mg/dL and 83.5 mg/dL and 96.8 mg/dL and 61.2 mg/dL and 104.6 mg/dL and 64.3 mg/dL and 156.7 mg/dL
Plasma triglycerides ([1]; 10 mg/kg buccal, after 13 days of treatment, group mean, P < 0.001 vs. Control buccal): 104.0 ± 16.6 mg/dL
Plasma triglycerides ([1]; 10 mg/kg buccal, after 13 days of treatment, individual mice, listed as drug): 102.0 mg/dL and 83.5 mg/dL and 93.6 mg/dL and 133.5 mg/dL and 118.1 mg/dL and 97.8 mg/dL and 99.2 mg/dL
Change in HDL levels, least square means±S.E.M. (Syndrome X patients; baseline 33.0±3.5 mg/dL, p=0.068 vs placebo): −5.8±4.1
Change in triglyceride levels, least square means±S.E.M. (Syndrome X patients; baseline 509±184 mg/dL, p<0.005 vs placebo): −165±76
